From US20170306388A1, “Method for the Identification of Inhibitors and Activators of Thymidylate Kinases” (Carnegie Mellon University, priority 2016, published 2017)

Tests used:
CaTMPK [1] = assay: One-dimensional proton NMR activity assay of CaTMPK; type: biochemical, Candida albicans; details: substance as phosphate acceptor (1 mM), 1 mM ATP as phosphate donor, pH 7.4
Description: Three different methods to assay for TMK activity have been reported in the literature. The first method uses isotope labeled [^14C] dTMP as substrate and utilizes the separation of dTMP and dTDP by thin-layer chromatography (TLC). The next method is a coupled enzymatic assay which involves the use of pyruvate kinase and lactate dehydrogenase to couple the production of ADP (a product of TMK activity) to the oxidation of NADH to NAD^+ which can be monitored spectrophotometrically at 340 nm. The third protocol involves the use of luciferin/luciferase to measure the concentration of unreacted ATP, or the amount to ADP in the TMK reaction mixture. All of these assays have inherent problems, ranging from the use of radioactivity to the potential inhibition of the coupling enzymes. Consequently, a simple one step assay to monitor the conversion of TMP to TDP was developed. The assay relies on the difference in the pyrimidine H6 proton chemical shifts of TMP and TDP (see FIG. 4). […] The new assay of the present invention also allows for the near-continuous measurement of product production, while current high-throughput assays are quench-stop type assays.
One-dimensional proton (^1H) NMR was used to monitor the activity of CaTMPK. The assay depends on the change in the chemical shift of the H6 proton (dTMP, AZTMP) or the H8 proton (dGMP) of the nucleobases upon the addition of the second phosphate group. The assay reaction included 50 mM Tris-HCl (pH 7.4), 50 mM KCl, 10 mM MgCl2, 1 mM ATP as the phosphate donor, 1 mM phosphate acceptor (dTMP, AZTMP or dGMP) and 10% D20. The reaction was initiated by the addition of CaTMPK to the reaction mix. A series of ^1H NMR spectra were acquired and the area (or height) of the proton line corresponding to the monophosphate forms of the acceptor molecule was plotted against time to calculate the initial rates of catalysis for each of the three substrates.

CaTMPK [2] = assay: NADH coupled enzyme activity assay (pyruvate kinase/lactate dehydrogenase) of CaTMPK; type: biochemical, Candida albicans; details: substance as phosphate acceptor, NADH decrease at 340 nm, pH 7.4
Method: The NADH coupled enzyme activity assay (Blondin, C., et al. (1994). Improved spectrophotometric assay of nucleoside monophosphate kinase activity using the pyruvate kinase/lactate dehydrogenase coupling system. Anal. Biochem 220, 219-221) is a well established assay to monitor the enzyme activity of thymidylate kinases. The assay was used to measure the activity of CaTMPK with the different phosphate acceptors (dTMP, AZTMP or dGMP). The reaction mixture consisted of 50 mM Tris-HCl (pH 7.4), 50 mM KCl, 10 mM MgCl2, 0.5 mM phosphoenolpyruvate, 0.15 mM NADH, 5 units/mL each of pyruvate kinase and lactate dehydrogenase. The reaction was initiated by adding the enzyme and the reaction rate was measured by monitoring the decrease of NADH concentration at 340 nm.

Structure (SMILES)	kcat, nmr assay (CaTMPK [1]) [s⁻¹]	kcat, coupled enzyme assay (CaTMPK [2]) [s⁻¹]
Cc1cn([C@H]2C[C@H](N=[N+]=[N-])[C@@H](COP(=O)(O)O)O2)c(=O)[nH]c1=O [AZTMP, azidothymidine monophosphate]	0.533	0.305
Nc1nc2c(ncn2[C@H]2C[C@H](O)[C@@H](COP(=O)(O)O)O2)c(=O)[nH]1 [dGMP]	0.00617	0.0083
Cc1cn([C@H]2C[C@H](O)[C@@H](COP(=O)(O)O)O2)c(=O)[nH]c1=O [dTMP, deoxythymidine monophosphate]	8.33	6.85
